Test results taken from ChEMBL document CHEMBL3301562, “MMV Box screening against Plasmodium falciparum protein kinases and aminoacyl tRNA synthetases”.

Key:
Type in all cases: functional
[1] = target: Calcium-dependent protein kinase 1 (Plasmodium falciparum, UniProt P62344); assay: MMV: CDPK1 Protein kinase inhibition assay using recombinant PfCDPK1, syntide 2 peptide substrate, ATP and KinaseGlo to measure % inhibition at 1 uM MMV box compound.
[2] = target: T1, Mitogen-activated protein kinase (Plasmodium falciparum, UniProt Q25917); assay: Final concentrations were 1 uM ATP, 0.5 mM DTT, 1 mM MgCl2, 0.5 mg/mL BSA, and 10 ug/ml MAP2 in a buffer of 50 mM HEPES (pH 7.0). 0.5 mg/mL histone III-S served as the substrate (13); 100 uM AMP-PNP, an ATP analog, was used as a control inhibitor. Incubation time was 4 hours.
T1 sequence (Q25917 whole entry): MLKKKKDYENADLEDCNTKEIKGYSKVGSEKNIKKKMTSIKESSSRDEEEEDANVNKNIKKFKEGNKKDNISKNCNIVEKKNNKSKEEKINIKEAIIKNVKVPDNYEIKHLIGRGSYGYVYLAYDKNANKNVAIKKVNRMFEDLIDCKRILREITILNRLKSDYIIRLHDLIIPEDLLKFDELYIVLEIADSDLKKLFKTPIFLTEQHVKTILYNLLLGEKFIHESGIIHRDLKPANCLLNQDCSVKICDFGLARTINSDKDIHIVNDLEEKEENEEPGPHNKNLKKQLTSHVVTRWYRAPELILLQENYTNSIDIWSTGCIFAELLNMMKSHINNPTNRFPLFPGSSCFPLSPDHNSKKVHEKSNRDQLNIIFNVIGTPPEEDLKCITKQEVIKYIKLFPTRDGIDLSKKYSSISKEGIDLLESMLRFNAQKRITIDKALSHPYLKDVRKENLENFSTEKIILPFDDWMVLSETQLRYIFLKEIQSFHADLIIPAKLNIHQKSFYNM

[3] = target: T2, Calcium-dependent protein kinase 4 (Plasmodium falciparum (isolate 3D7), UniProt Q8IBS5); assay: MMV: CDPK4 Protein kinase inhibition assay using recombinant PfCDPK4, syntide2 peptide substrate, ATP and KinaseGlo to measure % inhibition at 1 uM MMV box compound.
T2 sequence (Q8IBS5 whole entry): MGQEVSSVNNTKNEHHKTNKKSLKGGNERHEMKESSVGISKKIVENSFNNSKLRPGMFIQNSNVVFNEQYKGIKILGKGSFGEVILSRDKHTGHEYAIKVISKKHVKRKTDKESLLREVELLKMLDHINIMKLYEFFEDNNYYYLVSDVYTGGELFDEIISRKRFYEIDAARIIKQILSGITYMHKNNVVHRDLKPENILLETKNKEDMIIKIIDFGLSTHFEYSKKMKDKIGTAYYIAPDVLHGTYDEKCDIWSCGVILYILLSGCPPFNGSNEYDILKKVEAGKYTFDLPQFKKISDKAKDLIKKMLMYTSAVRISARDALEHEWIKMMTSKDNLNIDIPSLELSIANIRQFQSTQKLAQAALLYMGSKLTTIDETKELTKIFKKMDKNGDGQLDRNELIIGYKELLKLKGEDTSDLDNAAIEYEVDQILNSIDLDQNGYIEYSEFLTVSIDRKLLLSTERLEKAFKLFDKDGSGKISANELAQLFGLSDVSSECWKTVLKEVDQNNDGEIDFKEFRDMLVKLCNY

Proline--tRNA ligase = target: T3, Proline--tRNA ligase (Plasmodium falciparum (isolate 3D7), UniProt Q8I5R7); assay: MMV: ProRS recombinant Plasmodium falciparum Prolyl-tRNA-synthetase, assay with yeast tRNA, ATP, and proline and 3 uM MMV malaria box compound, assay read out with kinase glo as % inhibition.
T3 sequence (Q8I5R7 whole entry): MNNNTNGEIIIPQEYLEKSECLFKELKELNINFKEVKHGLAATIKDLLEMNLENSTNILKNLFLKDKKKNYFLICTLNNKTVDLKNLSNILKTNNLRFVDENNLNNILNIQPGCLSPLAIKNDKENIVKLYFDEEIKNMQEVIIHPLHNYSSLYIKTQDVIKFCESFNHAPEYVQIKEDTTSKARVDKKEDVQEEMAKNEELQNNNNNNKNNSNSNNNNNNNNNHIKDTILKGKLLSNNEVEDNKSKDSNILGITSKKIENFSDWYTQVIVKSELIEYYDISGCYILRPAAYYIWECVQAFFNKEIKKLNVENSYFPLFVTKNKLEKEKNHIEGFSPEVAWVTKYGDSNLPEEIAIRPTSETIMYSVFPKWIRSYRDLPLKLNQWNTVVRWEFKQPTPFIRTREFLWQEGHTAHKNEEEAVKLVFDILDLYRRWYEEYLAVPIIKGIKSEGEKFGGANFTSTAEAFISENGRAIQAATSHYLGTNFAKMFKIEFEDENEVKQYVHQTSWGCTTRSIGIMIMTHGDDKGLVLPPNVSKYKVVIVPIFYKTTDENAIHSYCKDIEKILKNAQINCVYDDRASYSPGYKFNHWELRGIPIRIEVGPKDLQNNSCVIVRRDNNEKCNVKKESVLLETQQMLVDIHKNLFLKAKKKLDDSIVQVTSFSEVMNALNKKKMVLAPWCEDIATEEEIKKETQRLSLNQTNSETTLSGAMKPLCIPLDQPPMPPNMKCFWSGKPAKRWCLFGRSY

[4] = target: T4, Putative uncharacterized protein pk7 (Plasmodium falciparum, UniProt O96214); assay: Final concentrations were 1 uM ATP, 2 mM DTT, 20 mM MgCl2, 2 mM MnCl2, 0.01% BSA, and 6 ug/ml PK7, in a buffer of 20 mM Tris-HCl (pH 7.5). The enzyme itself was the only substrate present (since autophosphorylation occurs); 100 uM 1NA-PP1 was used as a control inhibitor. Incubation time was 3 hours.
T4 sequence (O96214 whole entry): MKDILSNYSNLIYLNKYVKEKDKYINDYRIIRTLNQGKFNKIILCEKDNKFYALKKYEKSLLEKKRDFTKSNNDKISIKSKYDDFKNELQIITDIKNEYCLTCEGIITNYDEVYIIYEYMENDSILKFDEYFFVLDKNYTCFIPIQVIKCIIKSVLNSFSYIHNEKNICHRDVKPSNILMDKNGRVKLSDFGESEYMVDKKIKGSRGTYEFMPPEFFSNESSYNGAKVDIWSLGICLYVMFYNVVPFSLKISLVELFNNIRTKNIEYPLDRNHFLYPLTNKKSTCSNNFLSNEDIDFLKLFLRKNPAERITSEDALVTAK

[5] = target: T5, Cdk-related protein kinase 6 (Plasmodium falciparum, UniProt O77239); assay: Final concentrations were 1.5 uM ATP, 5 mM MnCl2, and 15 ug/ml PK6 in a buffer of 100 mM Tris-HCl (pH 7.5). 50 ug/mL MBP was provided as the substrate; 10 uM staurosporine was used as a control inhibitor. Incubation time was 3 hours and 40 minutes.The catalytic activity of each kinase was considered proportional to ATP consumed, as determined from measurements of residual [ATP] with the luciferase-based reagent Kinase-Glo (Promega) following incubation. Luminescence (proportional to residual [ATP]) was measured on the plate readers FLx800 (BioTek Instruments, Winooski, VT, USA) and MicroBeta2.
T5 sequence (O77239 whole entry): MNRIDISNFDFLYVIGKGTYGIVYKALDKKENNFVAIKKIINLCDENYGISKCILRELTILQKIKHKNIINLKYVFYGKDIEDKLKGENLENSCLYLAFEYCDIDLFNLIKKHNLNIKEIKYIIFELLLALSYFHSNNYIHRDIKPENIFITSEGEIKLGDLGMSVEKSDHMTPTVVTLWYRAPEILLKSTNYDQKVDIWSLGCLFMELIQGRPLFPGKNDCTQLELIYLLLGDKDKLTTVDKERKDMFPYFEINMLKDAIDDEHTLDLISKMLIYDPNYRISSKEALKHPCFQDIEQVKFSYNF

Lysine--tRNA ligase = Lysine--tRNA ligase (Plasmodium falciparum (isolate 3D7), UniProt Q8IDJ8); assay: MMV: KRS recombinant Plasmodium falciparum Lysyl-tRNA-synthetase, assay with yeast tRNA, ATP, and lysine and 3 uM MMV malaria box compound, assay read out with kinase glo as % inhibition.
Sequence of Lysine--tRNA ligase (Q8IDJ8 whole entry): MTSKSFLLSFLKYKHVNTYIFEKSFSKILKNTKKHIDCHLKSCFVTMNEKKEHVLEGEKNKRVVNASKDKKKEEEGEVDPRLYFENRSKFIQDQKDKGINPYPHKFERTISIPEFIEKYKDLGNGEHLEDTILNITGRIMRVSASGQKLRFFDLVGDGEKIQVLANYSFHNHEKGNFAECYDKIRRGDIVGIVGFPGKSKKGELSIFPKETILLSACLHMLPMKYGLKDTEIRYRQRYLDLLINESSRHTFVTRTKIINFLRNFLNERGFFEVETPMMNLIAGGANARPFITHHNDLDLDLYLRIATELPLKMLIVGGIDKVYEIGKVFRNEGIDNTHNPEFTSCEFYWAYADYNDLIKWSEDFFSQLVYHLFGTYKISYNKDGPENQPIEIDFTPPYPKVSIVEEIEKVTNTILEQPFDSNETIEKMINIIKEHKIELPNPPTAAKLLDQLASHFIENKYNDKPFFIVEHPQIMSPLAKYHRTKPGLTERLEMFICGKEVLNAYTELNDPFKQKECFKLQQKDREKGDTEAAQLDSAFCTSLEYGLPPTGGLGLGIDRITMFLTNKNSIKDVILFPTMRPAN

Sequence of Calcium-dependent protein kinase 1 (P62344 whole entry): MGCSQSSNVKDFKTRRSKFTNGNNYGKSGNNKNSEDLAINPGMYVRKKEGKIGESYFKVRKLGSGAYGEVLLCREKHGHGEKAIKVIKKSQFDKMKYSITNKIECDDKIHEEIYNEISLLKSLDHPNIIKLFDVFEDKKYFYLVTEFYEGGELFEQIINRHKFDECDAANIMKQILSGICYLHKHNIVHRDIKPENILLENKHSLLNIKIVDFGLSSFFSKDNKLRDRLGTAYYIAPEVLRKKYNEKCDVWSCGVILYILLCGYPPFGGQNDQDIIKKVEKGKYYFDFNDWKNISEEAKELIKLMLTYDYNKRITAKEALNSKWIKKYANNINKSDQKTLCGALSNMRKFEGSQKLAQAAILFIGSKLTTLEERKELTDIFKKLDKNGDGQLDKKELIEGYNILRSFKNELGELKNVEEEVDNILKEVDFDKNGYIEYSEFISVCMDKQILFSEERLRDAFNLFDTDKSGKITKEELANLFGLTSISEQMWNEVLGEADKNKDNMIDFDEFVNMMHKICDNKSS

| SMILES | IC50 [1] [nM] | IC50 [2] [nM] | IC50 [3] [nM] | IC50 (Proline--tRNA ligase) [nM] | IC50 [4] [nM] | IC50 [5] [nM] | IC50 (Lysine--tRNA ligase) [nM] |
| --- | --- | --- | --- | --- | --- | --- | --- |
| CN1CCN(c2ccc(Nc3c4ccccc4nc4ccccc34)cc2)CC1 | > 1000 | > 1000 | > 1000 | > 2500 | > 1000 | > 1000 | > 2500 |
| CCN(CC)CCNc1ncnc2c1[nH]c1ccc(Cl)cc12 | > 1000 | > 1000 | > 1000 | > 2500 | > 1000 | > 1000 | > 2500 |
| CCOC(=O)c1cnc2ccc(CC)cc2c1O | > 1000 | > 1000 | > 1000 | > 2500 | > 1000 | > 1000 | > 2500 |
| CCN(CC)CCNc1ccnc2cc(Cl)ccc12 | > 1000 | > 1000 | > 1000 | > 2500 | > 1000 | > 1000 | > 2500 |
| CCN1CCN(Cc2ccc(NC(=O)c3cc4ccc5cccnc5c4[nH]3)cc2)CC1 | > 1000 | > 1000 | > 1000 | > 2500 | > 1000 | > 1000 | > 2500 |
| CCC(c1ccccc1)c1nn2c(-c3cccs3)nnc2s1 (configuration not stated) | > 1000 | > 1000 | > 1000 | > 2500 | > 1000 | > 1000 | > 2500 |
| CC1CN(C(=O)c2sc3ccccc3c2Cl)CC(C)O1 (configuration not stated) | > 1000 | > 1000 | > 1000 | > 2500 | > 1000 | > 1000 | > 2500 |
| CN(C)c1ccc(C=Cc2nc(=O)c3ccccc3o2)cc1 | > 1000 | > 1000 | > 1000 | > 2500 | > 1000 | > 1000 | > 2500 |
| OC(CNC1CCCCC1)Cn1c2ccccc2c2ccccc21 (configuration not stated) | > 1000 | > 1000 | > 1000 | > 2500 | > 1000 | > 1000 | > 2500 |
| CCCN(CCC)CC(O)COc1ccccc1C(=O)Nc1ccccc1 (configuration not stated) | > 1000 | > 1000 | > 1000 | > 2500 | > 1000 | > 1000 | > 2500 |
| CCOC(=O)c1c(C)n(-c2ccc(Cl)cc2)c2ccc(OC(=O)C=Cc3ccccc3)cc12 | > 1000 | > 1000 | > 1000 | > 2500 | > 1000 | > 1000 | > 2500 |
| C=CC12CCN(CC1)C(C(O)c1ccnc3ccc(OC)cc13)C2 (configuration not stated) | > 1000 | > 1000 | > 1000 | > 2500 | > 1000 | > 1000 | > 2500 |
| Cc1ccc(-c2cc3nc4c(c(O)n3n2)CCCC4)cc1 | > 1000 | > 1000 | > 1000 | > 2500 | > 1000 | > 1000 | > 2500 |
| Cc1cc(C)c2c(c1)OCN(Cc1ccccc1Cl)C2 | > 1000 | > 1000 | > 1000 | > 2500 | > 1000 | > 1000 | > 2500 |
| COc1ccccc1NC1=C(N2CCCCC2)C(=O)c2ccccc2C1=O | > 1000 | > 1000 | > 1000 | > 2500 | > 1000 | > 1000 | > 2500 |
| CCCc1cc(O)c2c3c(c(=O)oc2c1)CN(C)CC3 | > 1000 | > 1000 | > 1000 | > 2500 | > 1000 | > 1000 | > 2500 |
| Cc1cc(NC(=O)C2c3ccccc3C(=O)N(CC(C)C)C2c2cccs2)no1 (configuration not stated) | > 1000 | > 1000 | > 1000 | > 2500 | > 1000 | > 1000 | > 2500 |
| COc1ccc2c(=O)cc(C(Cl)(Cl)Cl)oc2c1 | > 1000 | > 1000 | > 1000 | > 2500 | > 1000 | > 1000 | > 2500 |
| COc1ccc(-c2nc3cc(Cc4ccc5[nH]c(-c6ccc(OC)cc6)nc5c4)ccc3[nH]2)cc1 | > 1000 | > 1000 | > 1000 | > 2500 | > 1000 | > 1000 | > 2500 |
| Cc1ccc(N2C3c4ccccc4N(S(=O)(=O)c4ccc(C)cc4)C2c2ccccc2N3S(=O)(=O)c2ccc(C)cc2)cc1 | > 1000 | > 1000 | > 1000 | > 2500 | > 1000 | > 1000 | > 2500 |
| c1ccc(Cn2c(N=Nc3c(Nc4ccccc4)ccc4ccccc34)nc3ccccc32)cc1 | > 1000 | > 1000 | > 1000 | > 2500 | > 1000 | > 1000 | > 2500 |
